Reference: patent US6989270B1, “Using polyamide nucleic acid oligomers to engender a biological response” (Mayo Foundation for Medical Education and Research, priority 1997, dated 2006)

Legend:
[1] = tested on: neurotensin receptor-1 (NTR1); test: Hot plate test of NT-mediated anti-nociception in PNA-treated rats; assay type: in vivo, rat
Description: Under an Institutional Animal Care and Use Committee approved protocol and under sterile conditions male Sprague-Dawley rats (180-200 g) were stereotaxically implanted with stainless steel guide cannulae (26 gauge) into the PAG under sodium pentobarbital anesthesia (50 mg/kg, i.p.) as described in detail elsewhere (Jensen T. S. and Yaksh T. L., Brain Res. 372:301-312 (1986) and Al-Rodhan N.R.F., Brain Res. 557:227-235 (1991)). The coordinates used for PAG cannulations are -5.6 mm posterior from bregma, 1.0 mm lateral from bregma, and 5.5 mm down from the dura. The guide cannula was pre-measured to be 5.5 mm (Plastics One, Roanoke, Va.) and the internal cannula was ordered to fit below the pedestal with a 2.0 mm projection. The guide cannula was then fixed to the skull using a stainless steel screw (⅛ inch) and cranioplastic cement. A stainless steel stilette was then placed in each guide to keep it patent and free of debris. Immediately after surgery, the animals were allowed to recover before returning them to an individual housing cage. All injections began 5-7 days after surgery.
NTR1-PNA oligomers were injected, using a Hamilton digital syringe, into the PAG through the internal cannula, which extended 2 mm below the guide tip. The internal cannula was connected with a length of polyethylene tubing (PE-20) filled with saline solution. A small air bubble was introduced into the tubing to separate the saline from a solution containing 1.3 nmol of NTR1-PNA oligomers in artificial cerebral-spinal fluid (ACSF). The volume of the solution containing the NTR1-PNA oligomers was about 1.0 μl. The bubble was used to confirm the movement of this solution through the polyethylene tubing.
NTR1-PNA oligomers were injected into the PAG of each rat three times, on days -4, -2, and 0. Controls included rats receiving no injections, rats receiving injections of ACSF only, and rats receiving PNA oligomers having sequence specificity for an unrelated polypeptide, the mu-1 morphine receptor (MU1R). The sequence of MU1R-PNA is 5′-[…]-3′ (SEQ ID NO: 2).
The injection of NT in the PAG of rats produces a potent anti-nociceptive response as well as hypothermia. These responses are mediated by specific NT receptors and are not inhibited by naloxone. A very sensitive and reliable hot plate test was used to measure the anti-nociceptive effects of NT (Al-Rodhan N.R.F., Brain Res. 557:227-235 (1991)).
NTR1-PNA, MU1R-PNA, and ACSF treated as well as untreated rats were analyzed using the hot plate test for NT. One day after the last treatment, each rat was analyzed as follows. Fifteen minutes prior to testing, a pre-drug latency measurement was made by placing the rat on a hot plate maintained at a temperature of 52±0.15° C. and recording the time elapsed before the rat licked either of its hindpaws. In addition, the temperature of the rat was taken using a thermister probe inserted 3 cm in the rectum to determine the pre-drug body temperature (BT). After making these measurement, an appropriate dose of NT (18 nmol) at a volume of about 0.5 ul was administered into the PAG as described above. Thirty minutes after administering NT, the rat was again placed on a hot plate maintained at a temperature of 52±0.15° C. and the latency between the time the rat was placed on the surface and the time it licked either of its hindpaws was measured. […] Hot plate tests were scored as the percent of maximum possible effect (% MPE) and calculated using the following equation: % MPE=[(post-drug latency−pre-drug latency)/(cut-off−pre-drug latency)]×100; where the cut-off is 30 seconds. […] This average for untreated control rats was used to set the baseline MPE value to 100. Immediately after the 30 second hot plate test, BT was taken to measure NT-induced hypothermia using a thermister probe inserted 3 cm in the rectum. […] All test situations were compared to these baseline values derived from NT responsive untreated controls. […]

[2] = tested on: [125I]neurotensin binding sites (NT receptors); test: [125I]neurotensin binding assay, small intestine (jejunum and ileum) membranal preparations of treated rats; assay type: in vivo, rat
Description: Binding assays were performed using procedures similar to those described elsewhere (Kitabgi P. et al., Peptides 5:917-923 (1984) and Ahmad S. et al., Biochim et Biophys Acta 896:224-238 (1987)).
Table II contains the results from an [^125I]neurotensin binding assay using small intestine (jejunum and ileum) membranal preparations from NTR1-PNA treated and untreated rats. The small intestine tissue was harvested from the rats 1 day after receiving a single i.p. injection of NTR1-PNA oligomers as described above. Untreated rats were used to derive control values for the percent control dpm and percent control receptors (fmol/mg). Thus, the values for untreated rats were set to 100 percent.
In addition to determining the influence of […] NTR1-PNA oligomers on anti-nociception and hypothermia, the effects of these oligomers on NT binding sites were determined using the NT receptor binding assay described in Example 1.

[3] = small intestine, 1 day after single i.p. injection (3 mg/kg)

## NTR1-PNA: 12-mer antisense PNA oligomer to rat NTR1 coding region, 5′-CATTGCTCAAAC-3′ (SEQ ID NO: 1) (all peptide nucleic acid (PNA))
[1]; 10 mg/kg intraperitoneally, NT 18 nmol into PAG 24 hours later
  anti-nociception score (hot plate) after NT: 25 % MPE
[1]; PNA injected into PAG on days -4, -2, 0
  time until which NT-mediated anti-nociception remained significantly reduced: day five
[1]; intraperitoneal administration, Table VI
  Responsiveness: NT (anti-nociception and hypothermia): lost
[1]; single injection 10 mg/kg, tested every 24 hours with NT
  time for responses to NT to return to baseline levels after PNA injection: ≤ 48 h
[2]; Small intestine, 24 hours after single oral 10 mg/kg
  number of receptors (mean ± SEM in fmol/mg wet wt.): Below Detection
[2]; [3]
  % Control dpm's: 41 % Control
  % Control receptors: 2 % Control
[2]; small intestine, 24 hours after oral 10 mg/kg
  NT binding sites: completely abolished
[2]; small intestine, one day after i.p. treatment
  fewer [125I]neurotensin binding sites than untreated rats: 98%
